Key:
[1] = tested on: human prostate cancer LNCaP cells; experiment: Cytotoxic action on LNCaP cells (WST-8, 96 hr); assay type: cell-based; details: 96 hr culture
Method: The cytotoxic action of the compound of the present invention against human cancer cells was evaluated in vitro. In this experiment, (+)-JQ1 (Nature volume 468, pages 1067-1073 (23 Dec. 2010)) known to have an inhibitory activity on the binding of BRD4 protein and a ligand therefor was used as a positive control drug. Respective cells were suspended in 10% FBS/RPMI1640, seeded in a 96 well plate and cultured at 5% CO2, 37° C. overnight. A test compound dissolved in DMSO was diluted with 10% FBS/RPMI1640 and added and the cells were further cultured for 96 hr. After culturing, the viable cell number was measured using a cell number measurement WST-8 kit (Kishida Chemical Co., Ltd.). As a control, the measurement was performed under conditions free of the test compound. The cytotoxic activity of the compound of the present invention against human prostate cancer LNCaP cells is shown in IC50 value in Table 1. The IC50 value is a concentration of the compound showing 50% cell survival rate when the cell survival rate thereof under compound untreated condition is 100%. It was calculated from the straight line connecting the cell survival rate at two points enclosing the 50% cell survival rate and the compound concentration. In addition, the cytotoxic activity against respective cancer cells of human acute myeloid leukemia MV-4-11 cell, human chronic myeloid leukemia K562 cell, human multiple myeloma MM.1S cell, human diffuse large B-cell lymphoma SU-DHL-6 cell, human T-cell leukemia Jurkat cells, human Burkitt lymphoma Raji cell, human castration-resistant prostate cancer PC-3 cell, human AR-V7 positive castration-resistant prostate cancer 22Rv1 cell, human ovarian cancer A2780 cell, human cisplatin-resistant ovarian cancer SK-OV-03 cell, human bladder cancer 5637 cell, human breast cancer ZR-75-1 cell, human triple negative breast cancer MDA-MB-231 cell, human uterus cervix cancer HeLa cell, human uterine sarcoma MES-SA cell, human stomach cancer SNU-16 cell, human non-small cell lung cancer NCI-H2126 cell, human EGFRT790M mutation-positive non-small cell lung cancer NCI-H1975 cell, human small cell lung cancer NCI-H82 cell, human large cell lung cancer NCI-H460 cell, human colon cancer HCT116 cell, human glioma U-87 MG cell, human pancreatic cancer BxPC-3 cell, human liver cancer HLF cell, human bile duct cancer HuCCT1 cell, human renal cell cancer 786-O cell, and human fibrosarcoma HT1080 cell is shown in IC50 value in Table 2.

[2] = target: BRD4 protein (Homo sapiens (Human), UniProt O60885); experiment: BRD4 protein degradation inducing action in LNCaP cells (immunofluorescence, 6 hr); assay type: cell-based; details: anti-BRD4 fluorescence intensity
Method: The degradation inducing action of the compound of the present invention on BRD4 proteins in cancer cells was evaluated in vitro using human prostate cancer LNCaP cells. LNCaP cells were suspended in 10% FBS/RPMI1640, seeded in a 96 well Cell carrier plate (Perkin Elmer) and cultured at 5% CO2, 37° C. overnight. A test compound dissolved in DMSO was diluted with 10% FBS/RPMI1640 and added and the cells were further cultured for 6 hr. After culturing, the cells were immobilized with 4% para-formaldehyde/PBS and further subjected to a permeation treatment with 0.25% Triton X-100/PBS. Thereafter, the cells were blocked with 10% BSA/PBS, Anti-BRD4 (Sigma-Aldrich) solution was added and the cells were incubated at 4° C. overnight. Furthermore, Goat anti-Rabbit IgG(H+L) Cross-Adsorbed Secondary Antibody, Alexa Fluor 546 (Thermo Fisher Scientific) solution, 0.5 μg/mL Hoechst 33342 (Sigma-Aldrich), and 14 μM Acti-Stain 555 Fluorescent Phalloidin (Cytoskeleton) were added. After incubation for 1 hr, BRD4 protein amount was measured by Operetta (Perkin Elmer) as fluorescence intensity (excitation: 560 nm, emission: 572 nm). The BRD4 protein degradation inducing activity of the compound of the present invention in LNCaP cells is shown in DC50 value in Table 3. The DC50 value is a concentration of the compound showing 50% fluorescence intensity when the fluorescence intensity thereof under compound untreated condition is 100%. It was calculated from the straight line connecting the fluorescence intensity at two points enclosing the 50% fluorescence intensity and the compound concentration.

Row | Compound | DC50 [2] | IC50 [1]
1 | COC(=O)C[C@@H]1N=C(c2ccc(-c3ccc(C(=O)N[C@H](C)c4ccc(S(=O)(=O)Nc5ccc(C)c6c(C#N)c[nH]c56)cc4)cc3Cl)cc2)c2c(sc(C)c2C)-n2c(C)nnc21 [Example 84, methyl [(6S)-4-(2′-chloro-4′-{[(1R)-1-{4-[(3-cyano-4-methyl-1H-indol-7-yl)sulfamoyl]phenyl}ethyl]carbamoyl}[1,1′-biphenyl]-4-yl)-2,3,9-trimethyl-6H-thieno[3,2-f][1,2,4]triazolo[4,3-a][1,4]diazepin-6-yl]acetate] | 0.23 nM | 0.58 nM
2 | COC(=O)C[C@@H]1N=C(c2ccc(-c3ccc(C(=O)NCCc4ccc(S(=O)(=O)Nc5ccc(C)c6c(C#N)c[nH]c56)cc4)cc3C)cc2)c2c(sc(C)c2C)-n2c(C)nnc21 [Example 89, methyl [(6S)-4-{4′-[(2-{4-[(3-cyano-4-methyl-1H-indol-7-yl)sulfamoyl]phenyl}ethyl)carbamoyl]-2′-methyl [1,1′-biphenyl]-4-yl}-2,3,9-trimethyl-6H-thieno[3,2-f][1,2,4]triazolo[4,3-a][1,4]diazepin-6-yl]acetate] | 0.8 nM | 0.33 nM
3 | COC(=O)C[C@@H]1N=C(c2ccc(-c3ccc(C(=O)N[C@H](C)c4ccc(S(=O)(=O)Nc5ccc(C)c6c(C#N)c[nH]c56)cc4)cc3C)cc2)c2c(sc(C)c2C)-n2c(C)nnc21 [Example 88, methyl [(6S)-4-(4′-{[(1R)-1-{4-[(3-cyano-4-methyl-1H-indol-7-yl)sulfamoyl]phenyl}ethyl]carbamoyl}-2′-methyl[1,1′-biphenyl]-4-yl)-2,3,9-trimethyl-6H-thieno[3,2-f][1,2,4]triazolo[4,3-a][1,4]diazepin-6-yl]acetate] | 0.37 nM | 0.17 nM
4 | Cc1sc2c(c1C)C(c1ccc(-c3ccc(C(=O)NCc4ccc(S(=O)(=O)Nc5ccc(C)c6c(C#N)c[nH]c56)cc4)cc3)cc1)=N[C@@H](CC(=O)NCCO)c1nnc(C)n1-2 [Example 37, N-({4-[(3-cyano-4-methyl-1H-indol-7-yl)sulfamoyl]phenyl}methyl)-4′-[(6S)-6-{2-[(2-hydroxyethyl)amino]-2-oxoethyl}-2,3,9-trimethyl-6H-thieno[3,2-f][1,2,4]triazolo[4,3-a][1,4]diazepin-4-yl][1,1′-biphenyl]-4-carboxamide] | 1.4 nM | 3 nM
5 | COC(=O)C[C@@H]1N=C(c2ccc(-c3ccc(C(=O)NCc4ccc(S(=O)(=O)Nc5ccc(C)c6c(C#N)c[nH]c56)cc4)cc3F)cc2)c2c(sc(C)c2C)-n2c(C)nnc21 [Example 45, methyl [(6S)-4-{4′-[({4-[(3-cyano-4-methyl-1H-indol-7-yl)sulfamoyl]phenyl}methyl)carbamoyl]-2′-fluoro[1,1′-biphenyl]-4-yl}-2,3,9-trimethyl-6H-thieno[3,2-f][1,2,4]triazolo[4,3-a][1,4]diazepin-6-yl]acetate] | 0.19 nM | 0.22 nM
6 | Cc1sc2c(c1C)C(c1ccc(-c3ccc(C(=O)NCc4ccc(S(=O)(=O)Nc5ccc(C)c6c(C#N)c[nH]c56)cc4)nc3)cc1)=N[C@@H](CC(=O)OC(C)(C)C)c1nnc(C)n1-2 [Example Compound 145, t-butyl [(6S)-4-(4-{6-[({4-[(3-cyano-4-methyl-1H-indol-7-yl)sulfamoyl]phenyl}methyl)carbamoyl]pyridin-3-yl}phenyl)-2,3,9-trimethyl-6H-thieno[3,2-f][1,2,4]triazolo[4,3-a][1,4]diazepin-6-yl]acetate] | 0.17 nM | 0.44 nM
7 | Cc1sc2c(c1C)C(c1ccc(-c3ccc(C(=O)N[C@H](C)c4ccc(S(=O)(=O)Nc5ccc(C)c6c(C#N)c[nH]c56)cc4)cc3)cc1)=N[C@@H](CC(=O)OC(C)(C)C)c1nnc(C)n1-2 [Example Compound 134, t-butyl [(6S)-4-(4′-{[(1R)-1-{4-[(3-cyano-4-methyl-1H-indol-7-yl)sulfamoyl]phenyl}ethyl]carbamoyl}[1,1′-biphenyl]-4-yl)-2,3,9-trimethyl-6H-thieno[3,2-f][1,2,4]triazolo[4,3-a][1,4]diazepin-6-yl]acetate] | 0.31 nM | 0.55 nM

Compounds with a lower DC50 [2], results first:

Row | DC50 [2] | Compound | IC50 [1]
8 | 0.12 nM | Cc1sc2c(c1C)C(c1ccc(-c3ccc(C(=O)NCc4ccc(S(=O)(=O)Nc5ccc(C)c6c(C#N)c[nH]c56)cc4)nn3)cc1)=N[C@@H](CC(=O)OC(C)(C)C)c1nnc(C)n1-2 [Example Compound 150, t-butyl [(6S)-4-(4-{6-[({4-[(3-cyano-4-methyl-1H-indol-7-yl)sulfamoyl]phenyl}methyl)carbamoyl]pyridazin-3-yl}phenyl)-2,3,9-trimethyl-6H-thieno[3,2-f][1,2,4]triazolo[4,3-a][1,4]diazepin-6-yl]acetate] | 0.43 nM
9 | 0.042 nM | Cc1sc2c(c1C)C(c1ccc(-c3cnc(C(=O)NCc4ccc(S(=O)(=O)Nc5ccc(C)c6c(C#N)c[nH]c56)cc4)cn3)cc1)=N[C@@H](CC(=O)OC(C)(C)C)c1nnc(C)n1-2 [Example Compound 148, t-butyl [(6S)-4-(4-{5-[({4-[(3-cyano-4-methyl-1H-indol-7-yl)sulfamoyl]phenyl}methyl)carbamoyl]pyrazin-2-yl}phenyl)-2,3,9-trimethyl-6H-thieno[3,2-f][1,2,4]triazolo[4,3-a][1,4]diazepin-6-yl]acetate] | 0.2 nM
10 | 0.039 nM | CCc1ccc(NS(=O)(=O)c2ccc(CCNC(=O)c3ccc(-c4ccc(C5=N[C@@H](CC(=O)OC)c6nnc(C)n6-c6sc(C)c(C)c65)cc4)cc3)cc2)c2[nH]cc(C#N)c12 [Example Compound 128, methyl [(6S)-4-{4′-[(2-{4-[(3-cyano-4-ethyl-1H-indol-7-yl)sulfamoyl]phenyl}ethyl)carbamoyl][1,1′-biphenyl]-4-yl}-2,3,9-trimethyl-6H-thieno[3,2-f][1,2,4]triazolo[4,3-a][1,4]diazepin-6-yl]acetate] | 0.074 nM
11 | 0.033 nM | CCOC(=O)C[C@@H]1N=C(c2ccc(-c3ccc(C(=O)NCc4ccc(S(=O)(=O)Nc5ccc(C)c6c(C#N)c[nH]c56)cc4)cc3)cc2)c2c(sc(C)c2C)-n2c(C)nnc21 [Example Compound 129, ethyl [(6S)-4-{4′-[({4-[(3-cyano-4-methyl-1H-indol-7-yl)sulfamoyl]phenyl}methyl)carbamoyl][1,1′-biphenyl]-4-yl}-2,3,9-trimethyl-6H-thieno[3,2-f][1,2,4]triazolo[4,3-a][1,4]diazepin-6-yl]acetate] | 0.048 nM
12 | 0.029 nM | COC(=O)C[C@@H]1N=C(c2ccc(-c3cnc(C(=O)NCc4ccc(S(=O)(=O)Nc5ccc(C)c6c(C#N)c[nH]c56)cc4)c(C)c3)cc2)c2c(sc(C)c2C)-n2c(C)nnc21 [Example 91, methyl [(6S)-4-(4-{6-[({4-[(3-cyano-4-methyl-1H-indol-7-yl)sulfamoyl]phenyl}methyl)carbamoyl]-5-methylpyridin-3-yl}phenyl)-2,3,9-trimethyl-6H-thieno[3,2-f][1,2,4]triazolo[4,3-a][1,4]diazepin-6-yl]acetate] | 0.26 nM
13 | 0.024 nM | CCc1ccc(NS(=O)(=O)c2ccc([C@@H](C)NC(=O)c3ccc(-c4ccc(C5=N[C@@H](CC(=O)OC)c6nnc(C)n6-c6sc(C)c(C)c65)cc4)cc3)cc2)c2[nH]cc(C#N)c12 [Example Compound 127, methyl [(6S)-4-(4′-{[(1R)-1-{4-[(3-cyano-4-ethyl-1H-indol-7-yl)sulfamoyl]phenyl}ethyl]carbamoyl}[1,1′-biphenyl]-4-yl)-2,3,9-trimethyl-6H-thieno[3,2-f][1,2,4]triazolo[4,3-a][1,4]diazepin-6-yl]acetate] | 0.032 nM
